Source: the NIST ThermoML archive (doi:10.1021/je901079k)
Numbers after ± are expanded uncertainties.

Assay: xn = mol fraction of the nth substance listed
Conditions: Maximal bubble pressure

F.[F-].[Na+] [sodium hydrogen fluoride] + [F][Al]([F])[F]
surface tension liquid-gas (1130.2 K, x1 = 0.6): 92.04 ± 2.8 mN/m | surface tension liquid-gas (1159.2 K, x1 = 0.6): 89.61 ± 2.7 mN/m | surface tension liquid-gas (1184.2 K, x1 = 0.6): 87.51 ± 2.7 mN/m | surface tension liquid-gas (1215.2 K, x1 = 0.6): 84.94 ± 2.6 mN/m | surface tension liquid-gas (1239.7 K, x1 = 0.6): 82.84 ± 2.5 mN/m | surface tension liquid-gas (1274.2 K, x1 = 0.6667): 105.93 ± 3.2 mN/m | surface tension liquid-gas (1297.2 K, x1 = 0.6667): 104.59 ± 3.2 mN/m | surface tension liquid-gas (1297.2 K, x1 = 0.7143): 121.35 ± 3.7 mN/m | surface tension liquid-gas (1299.2 K, x1 = 0.75): 132.71 ± 4 mN/m | surface tension liquid-gas (1318.2 K, x1 = 0.7143): 118.25 ± 3.6 mN/m | surface tension liquid-gas (1318.2 K, x1 = 0.75): 130.09 ± 4 mN/m | surface tension liquid-gas (1319.2 K, x1 = 0.6667): 103.14 ± 3.1 mN/m | surface tension liquid-gas (1329.2 K, x1 = 0.7143): 116.62 ± 3.6 mN/m | surface tension liquid-gas (1339.2 K, x1 = 0.75): 127.18 ± 3.9 mN/m | surface tension liquid-gas (1340.2 K, x1 = 0.6667): 101.57 ± 3.1 mN/m | surface tension liquid-gas (1348.2 K, x1 = 0.7143): 113.82 ± 3.5 mN/m | surface tension liquid-gas (1368.2 K, x1 = 0.7143): 110.87 ± 3.4 mN/m | surface tension liquid-gas (1370.2 K, x1 = 0.75): 122.89 ± 3.7 mN/m
